“Also recorded” adds a separate entry of the source. Read-outs that look alike come from different tables or passages of the source. Where a SMILES comes first, the peptide text is derived from it.
Legend:
adult male ICR mice [1] = details: mouse, in vivo
adult male ICR mice [2] = details: mouse, in vivo; remark: listed apart in the source
[3] = biological target: T1, CaV2.2 (N-type) calcium channels in rat superior cervical ganglion (SCG) neurons (Rattus norvegicus, UniProt Q02294); experiment: cell-based; format: cell-based, rat (Wistar)
T1 construct: SCG neurons are the most used native preparation to assess CaV2.2 (N-type) channel function; endogenous in cells
T1 sequence (Q02294 whole entry): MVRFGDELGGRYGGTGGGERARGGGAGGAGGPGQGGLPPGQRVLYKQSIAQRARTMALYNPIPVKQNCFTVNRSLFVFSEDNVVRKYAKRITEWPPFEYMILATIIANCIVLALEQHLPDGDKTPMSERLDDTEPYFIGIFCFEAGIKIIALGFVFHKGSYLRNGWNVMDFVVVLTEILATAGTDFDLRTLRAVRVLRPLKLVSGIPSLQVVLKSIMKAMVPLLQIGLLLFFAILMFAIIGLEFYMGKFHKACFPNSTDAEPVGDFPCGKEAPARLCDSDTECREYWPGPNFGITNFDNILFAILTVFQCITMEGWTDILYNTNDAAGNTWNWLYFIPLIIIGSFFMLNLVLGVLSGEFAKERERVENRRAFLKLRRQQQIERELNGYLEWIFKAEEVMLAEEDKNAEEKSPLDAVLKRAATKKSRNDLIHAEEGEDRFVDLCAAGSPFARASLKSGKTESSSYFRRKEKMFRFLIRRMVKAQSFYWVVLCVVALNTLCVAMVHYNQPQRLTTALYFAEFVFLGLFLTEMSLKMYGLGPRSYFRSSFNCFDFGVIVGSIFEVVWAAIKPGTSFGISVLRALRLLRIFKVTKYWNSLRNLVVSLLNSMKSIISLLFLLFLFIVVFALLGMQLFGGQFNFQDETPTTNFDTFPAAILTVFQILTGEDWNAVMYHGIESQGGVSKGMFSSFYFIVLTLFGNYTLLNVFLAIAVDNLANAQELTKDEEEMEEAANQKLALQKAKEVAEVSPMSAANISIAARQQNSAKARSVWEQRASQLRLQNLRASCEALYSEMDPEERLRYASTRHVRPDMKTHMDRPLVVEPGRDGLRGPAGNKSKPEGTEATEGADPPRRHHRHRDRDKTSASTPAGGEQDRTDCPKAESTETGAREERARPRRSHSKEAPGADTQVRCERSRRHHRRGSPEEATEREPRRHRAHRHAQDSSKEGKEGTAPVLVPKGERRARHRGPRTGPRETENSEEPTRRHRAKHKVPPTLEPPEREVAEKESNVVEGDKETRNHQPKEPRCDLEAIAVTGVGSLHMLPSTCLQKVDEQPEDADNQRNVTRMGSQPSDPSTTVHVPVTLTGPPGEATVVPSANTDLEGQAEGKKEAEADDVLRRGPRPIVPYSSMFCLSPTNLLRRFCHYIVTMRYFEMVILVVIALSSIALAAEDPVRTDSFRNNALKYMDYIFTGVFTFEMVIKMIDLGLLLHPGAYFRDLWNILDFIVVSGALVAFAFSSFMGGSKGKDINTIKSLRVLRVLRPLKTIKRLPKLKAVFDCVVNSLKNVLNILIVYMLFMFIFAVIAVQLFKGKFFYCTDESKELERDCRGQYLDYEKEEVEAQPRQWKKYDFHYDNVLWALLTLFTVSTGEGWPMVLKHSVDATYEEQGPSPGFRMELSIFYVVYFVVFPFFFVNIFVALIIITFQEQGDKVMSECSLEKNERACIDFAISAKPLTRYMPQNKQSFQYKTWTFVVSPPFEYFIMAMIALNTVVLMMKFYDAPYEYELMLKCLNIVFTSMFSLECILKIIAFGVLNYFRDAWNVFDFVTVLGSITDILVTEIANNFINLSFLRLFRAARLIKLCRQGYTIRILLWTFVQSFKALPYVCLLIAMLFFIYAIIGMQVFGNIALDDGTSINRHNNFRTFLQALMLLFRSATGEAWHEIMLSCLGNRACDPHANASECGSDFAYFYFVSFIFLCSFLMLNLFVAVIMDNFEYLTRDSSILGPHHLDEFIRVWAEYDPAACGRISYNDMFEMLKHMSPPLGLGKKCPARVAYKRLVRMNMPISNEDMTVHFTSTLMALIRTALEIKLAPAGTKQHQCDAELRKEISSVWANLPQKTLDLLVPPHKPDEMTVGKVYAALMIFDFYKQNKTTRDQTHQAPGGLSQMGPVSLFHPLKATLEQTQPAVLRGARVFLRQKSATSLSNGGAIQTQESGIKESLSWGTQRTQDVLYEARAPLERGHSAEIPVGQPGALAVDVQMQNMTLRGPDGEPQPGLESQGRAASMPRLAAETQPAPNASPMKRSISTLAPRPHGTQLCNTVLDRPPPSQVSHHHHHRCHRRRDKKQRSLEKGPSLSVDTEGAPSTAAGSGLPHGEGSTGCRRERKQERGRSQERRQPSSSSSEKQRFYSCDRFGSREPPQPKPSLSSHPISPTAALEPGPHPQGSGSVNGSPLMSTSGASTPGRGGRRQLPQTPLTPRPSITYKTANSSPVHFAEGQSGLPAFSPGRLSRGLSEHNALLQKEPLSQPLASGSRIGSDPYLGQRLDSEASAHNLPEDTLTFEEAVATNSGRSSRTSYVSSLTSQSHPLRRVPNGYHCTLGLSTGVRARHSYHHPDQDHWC
T1 sequence (P54290 25-1091 partner): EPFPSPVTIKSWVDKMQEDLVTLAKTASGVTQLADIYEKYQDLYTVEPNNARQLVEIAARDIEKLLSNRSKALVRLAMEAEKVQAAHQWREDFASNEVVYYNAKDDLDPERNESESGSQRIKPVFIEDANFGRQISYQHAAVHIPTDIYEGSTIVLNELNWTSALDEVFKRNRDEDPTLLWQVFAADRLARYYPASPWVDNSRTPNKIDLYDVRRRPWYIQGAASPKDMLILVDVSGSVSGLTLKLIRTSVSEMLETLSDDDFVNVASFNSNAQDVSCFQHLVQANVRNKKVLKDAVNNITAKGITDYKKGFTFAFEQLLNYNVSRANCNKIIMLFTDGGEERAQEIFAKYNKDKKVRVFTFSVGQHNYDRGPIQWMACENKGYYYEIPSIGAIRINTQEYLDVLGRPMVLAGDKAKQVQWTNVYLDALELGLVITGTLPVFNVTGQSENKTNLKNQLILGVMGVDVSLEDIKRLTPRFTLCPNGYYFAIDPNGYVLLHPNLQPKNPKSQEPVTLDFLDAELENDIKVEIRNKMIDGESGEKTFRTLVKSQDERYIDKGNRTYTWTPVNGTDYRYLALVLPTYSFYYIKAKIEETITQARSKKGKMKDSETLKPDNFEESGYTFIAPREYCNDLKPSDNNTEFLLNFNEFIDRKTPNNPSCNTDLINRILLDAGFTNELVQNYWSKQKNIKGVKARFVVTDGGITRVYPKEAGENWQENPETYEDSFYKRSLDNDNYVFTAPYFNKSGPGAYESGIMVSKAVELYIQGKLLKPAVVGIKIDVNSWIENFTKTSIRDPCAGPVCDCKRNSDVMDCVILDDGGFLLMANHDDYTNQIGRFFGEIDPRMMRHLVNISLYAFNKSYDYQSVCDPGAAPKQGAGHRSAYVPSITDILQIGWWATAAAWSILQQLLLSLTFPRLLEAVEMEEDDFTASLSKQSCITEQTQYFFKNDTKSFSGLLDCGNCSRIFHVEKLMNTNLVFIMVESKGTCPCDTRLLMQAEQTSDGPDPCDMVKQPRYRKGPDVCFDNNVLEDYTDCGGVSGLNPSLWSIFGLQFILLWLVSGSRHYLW
T1 sequence (P54287 whole entry partner): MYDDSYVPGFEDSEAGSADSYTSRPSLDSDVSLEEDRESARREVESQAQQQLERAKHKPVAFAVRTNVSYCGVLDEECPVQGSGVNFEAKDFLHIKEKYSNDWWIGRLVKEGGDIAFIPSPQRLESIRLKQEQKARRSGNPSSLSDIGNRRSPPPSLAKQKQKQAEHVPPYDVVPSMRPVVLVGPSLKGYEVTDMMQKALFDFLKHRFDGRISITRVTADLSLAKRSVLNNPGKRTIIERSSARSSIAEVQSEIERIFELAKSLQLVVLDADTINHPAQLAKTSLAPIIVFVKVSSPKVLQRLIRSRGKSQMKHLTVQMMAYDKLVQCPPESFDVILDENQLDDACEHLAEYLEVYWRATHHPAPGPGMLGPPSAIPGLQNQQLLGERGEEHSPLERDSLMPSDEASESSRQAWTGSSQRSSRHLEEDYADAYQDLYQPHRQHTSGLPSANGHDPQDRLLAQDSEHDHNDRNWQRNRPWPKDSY

[4] = read-out: inhibition of calcium current

Q: What does the source list for CSCC[C@H](NC(=O)[C@H](CC(C)C)NC(=O)[C@H](CCCNC(=N)N)NC(=O)[C@H](CO)NC(=O)CNC(=O)[C@H](CCCCN)NC(=O)[C@H](CO)NC(=O)[C@H](CC(C)C)NC(=O)[C@H](CS)NC(=O)[C@H](Cc1ccccc1)NC(=O)[C@H](CCC(=O)O)NC(=O)[C@H](CCCCN)NC(=O)[C@@H](NC(=O)[C@H](CO)NC(=O)[C@H](CS)NC(=O)[C@H](CO)NC(=O)[C@H](CO)NC(=O)[C@H](CS)NC(=O)[C@H](CO)NC(=O)[C@H](CCC(N)=O)NC(=O)CNC(=O)[C@H](CCCCN)NC(=O)[C@@H](N)CS)[C@@H](C)O)C(=O)N[C@@H](Cc1ccc(O)cc1)C(=O)N[C@@H](CC(=O)O)C(=O)N[C@@H](CS)C(=O)N[C@@H](CS)C(=O)N[C@H](C(=O)NCC(=O)N[C@@H](CO)C(=O)N[C@@H](CS)C(=O)N[C@@H](CS)C(=O)NCC(=O)N[C@H](C(=O)N[C@@H](CCCCN)C(=O)N[C@H](C(=O)N[C@@H](C)C(=O)NCC(=O)N[C@H](C(=O)N[C@H](C(=O)O)[C@@H](C)O)C(C)C)[C@@H](C)O)C(C)C)[C@@H](C)O [RsXXIVA] (H-CKGQSCSSCSTKEFCLSKGSRLMYDCCTGSCCGVKTAGVT-OH)?
A: hind paw licking in formalin test (in words) compared with control group (adult male ICR mice [1]): significantly reduced the hind paw licking during both phase 1 (Figure 6A) and phase 2 (Figure 6B); analgesic effect in hot-plate test (in words) compared with control (PBS) (adult male ICR mice [2]): analgesic effect in acute thermal pain at 30 and 45 min post-injection; also recorded: significantly better than the control group (p < 0.05); CaV2.2 current before restoration (under toxin) [3]: −442.9 ± 213.8 pA; CaV2.2 current restored after toxin washout [3]: −798.2 ± 313.4 pA; Hill coefficient of dose-response for CaV2.2 current inhibition [3]: 0.94; affinity for CaV2.2 (in words) [3]: low affinity for CaV2.2; reversibility of CaV2.2 current inhibition after washing [3]: partially reversed after washing; also recorded: partially reversible; also recorded: the inhibition of the CaV2.2 channel current occurred reversibly; time to inhibit CaV2.2 current [3]: less than 4 s; inhibition at 0.03 µM [3, 4]: 1.6 ± 0.1%; inhibition at 0.3 µM [3, 4]: 12 ± 0.5%; inhibition at 3 µM [3, 4]: 58.1 ± 2.6%; inhibition at 24 µM [3, 4]: 97.9 ± 0.5%; inhibition at 3 µM ([3]; read-out: percentage of inhibition compared to the block with 100 μM Cd2+): 58.1%

— paper PMC3705398 (Marine Drugs, 2013)
